How the values were obtained:
[1] = in vitro stability of curcumin in phosphate-buffered saline at 37° C.; assay type: physicochemical
[2] = test system: psoriasis-like inflammation; assay: imiquimod psoriasis-like skin inflammation in mice; assay type: in vivo; settings: skin cross-section
From the text: The efficacy of dMNA-delivered CA-EVs in simultaneously blocking and reversing inflammation was studied. The treatments included topical, intradermal, and dMNA application of CA-EVs, naïve EVs, and naked curcumin.

curcumin remaining stable ([1]; 3 hours): 5% | degradation of curcumin over time ([1]; seven-day study): degraded entirely within one day
Structure (SMILES): COc1cc(/C=C/C(=O)CC(=O)/C=C/c2ccc(O)c(OC)c2)ccc1O [naked curcumin, curcumin]
therapeutic effect on imiquimod-induced skin inflammation [2]: negligible effect
